# According to patent US11447466B2, “Substituted indole compounds useful as inhibitors of TLR7/8/9” (BRISTOL-MYERS SQUIBB COMPANY, priority 2017, dated 2022):
# pIC50: −log10 of the molar value.
# What was measured:
# Format in all cases: cell-based
# human TLR9 = target: T1, human TLR9 (Homo sapiens, UniProt Q9NR96); assay: TLR9 inhibition reporter assay (HEK-Blue SEAP reporter, ODN2006 stimulation); settings: HEK-Blue cells overexpressing human TLR9, SEAP reporter, ODN2006 5 nM, 22 hour incubation
# T1 construct: host or cells: HEK-Blue cells
# T1 sequence (Q9NR96 26-1032): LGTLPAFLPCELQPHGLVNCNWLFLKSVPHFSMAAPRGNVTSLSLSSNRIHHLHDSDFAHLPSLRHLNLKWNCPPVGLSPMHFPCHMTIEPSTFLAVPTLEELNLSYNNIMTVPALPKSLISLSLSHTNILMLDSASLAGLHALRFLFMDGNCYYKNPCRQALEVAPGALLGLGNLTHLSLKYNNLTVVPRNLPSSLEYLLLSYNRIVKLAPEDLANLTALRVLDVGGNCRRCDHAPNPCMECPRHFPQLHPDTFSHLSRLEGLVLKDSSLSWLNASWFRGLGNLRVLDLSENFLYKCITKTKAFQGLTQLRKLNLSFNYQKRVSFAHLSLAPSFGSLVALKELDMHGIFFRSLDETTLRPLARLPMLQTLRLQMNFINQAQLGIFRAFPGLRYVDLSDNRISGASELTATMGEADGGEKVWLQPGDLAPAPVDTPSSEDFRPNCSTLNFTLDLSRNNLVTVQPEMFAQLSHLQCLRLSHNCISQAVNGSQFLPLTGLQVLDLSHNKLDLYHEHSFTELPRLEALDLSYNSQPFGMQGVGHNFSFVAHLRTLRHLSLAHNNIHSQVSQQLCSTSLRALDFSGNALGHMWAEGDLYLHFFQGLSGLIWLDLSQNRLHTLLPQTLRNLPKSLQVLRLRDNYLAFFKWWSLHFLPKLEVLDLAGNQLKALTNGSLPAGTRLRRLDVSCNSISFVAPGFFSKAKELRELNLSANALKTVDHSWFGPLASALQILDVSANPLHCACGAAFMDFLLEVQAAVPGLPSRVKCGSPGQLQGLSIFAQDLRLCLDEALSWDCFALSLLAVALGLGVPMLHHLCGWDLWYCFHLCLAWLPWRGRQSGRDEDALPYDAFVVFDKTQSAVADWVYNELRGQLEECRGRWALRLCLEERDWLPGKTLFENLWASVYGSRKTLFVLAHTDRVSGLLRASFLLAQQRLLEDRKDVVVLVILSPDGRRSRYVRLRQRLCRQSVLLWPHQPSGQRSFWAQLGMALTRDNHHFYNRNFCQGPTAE
# How it was run: (§1)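 Agonists used: gardiquimod 7.5 μM (TLR7), R848 15.9 μM (TLR8), ODN2006 5 nM (TLR9), added after 30 min room-temperature compound pre-treatment (0.05 nM–50 μM) of receptor-overexpressing HEK-Blue cells. SEAP reporter (NF-κB/AP-1 driven) read after 22 h at 37 °C; inhibition scaled between agonist+DMSO and reference-inhibitor wells.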
# human TLR8 = target: T2, human TLR8 (Homo sapiens, UniProt Q9NR97); assay: TLR8 inhibition reporter assay (HEK-Blue SEAP reporter, R848 stimulation); settings: HEK-Blue cells overexpressing human TLR8, SEAP reporter, R848 15.9 μM, 22 hour incubation
# T2 construct: host or cells: HEK-Blue cells
# T2 sequence (Q9NR97 27-1041): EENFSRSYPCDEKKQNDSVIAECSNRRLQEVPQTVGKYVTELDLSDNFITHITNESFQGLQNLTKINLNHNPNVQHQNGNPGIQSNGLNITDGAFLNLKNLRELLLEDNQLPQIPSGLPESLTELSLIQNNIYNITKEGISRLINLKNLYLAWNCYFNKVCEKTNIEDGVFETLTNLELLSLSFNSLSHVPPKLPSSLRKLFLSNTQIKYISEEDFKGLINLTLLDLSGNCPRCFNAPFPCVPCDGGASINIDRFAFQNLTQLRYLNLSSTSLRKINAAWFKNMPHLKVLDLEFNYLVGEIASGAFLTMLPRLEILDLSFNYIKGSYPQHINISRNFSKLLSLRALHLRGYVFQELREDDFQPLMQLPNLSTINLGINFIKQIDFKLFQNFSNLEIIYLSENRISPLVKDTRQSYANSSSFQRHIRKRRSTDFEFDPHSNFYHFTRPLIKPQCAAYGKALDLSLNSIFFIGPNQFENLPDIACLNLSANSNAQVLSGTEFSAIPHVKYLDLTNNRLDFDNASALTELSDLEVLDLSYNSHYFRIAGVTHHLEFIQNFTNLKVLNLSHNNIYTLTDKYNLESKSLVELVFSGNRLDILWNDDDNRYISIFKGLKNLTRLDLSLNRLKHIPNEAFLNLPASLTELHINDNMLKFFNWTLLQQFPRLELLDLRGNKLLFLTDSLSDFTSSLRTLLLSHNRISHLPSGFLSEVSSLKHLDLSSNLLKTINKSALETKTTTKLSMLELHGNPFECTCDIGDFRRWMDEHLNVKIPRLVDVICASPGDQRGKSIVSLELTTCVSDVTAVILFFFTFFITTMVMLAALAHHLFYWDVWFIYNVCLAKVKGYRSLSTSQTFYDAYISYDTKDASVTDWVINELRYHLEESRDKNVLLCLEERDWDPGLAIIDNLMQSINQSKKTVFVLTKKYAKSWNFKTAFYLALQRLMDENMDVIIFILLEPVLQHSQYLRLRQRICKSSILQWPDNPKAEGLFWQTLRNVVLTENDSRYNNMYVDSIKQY
# How it was run: as §1
# human TLR7 = target: T3, human TLR7 (Homo sapiens, UniProt Q9NYK1); assay: TLR7 inhibition reporter assay (HEK-Blue SEAP reporter, gardiquimod stimulation); settings: HEK-Blue cells overexpressing human TLR7, SEAP reporter, gardiquimod 7.5 μM, 22 hour incubation
# T3 construct: host or cells: HEK-Blue cells
# T3 sequence (Q9NYK1 27-1049): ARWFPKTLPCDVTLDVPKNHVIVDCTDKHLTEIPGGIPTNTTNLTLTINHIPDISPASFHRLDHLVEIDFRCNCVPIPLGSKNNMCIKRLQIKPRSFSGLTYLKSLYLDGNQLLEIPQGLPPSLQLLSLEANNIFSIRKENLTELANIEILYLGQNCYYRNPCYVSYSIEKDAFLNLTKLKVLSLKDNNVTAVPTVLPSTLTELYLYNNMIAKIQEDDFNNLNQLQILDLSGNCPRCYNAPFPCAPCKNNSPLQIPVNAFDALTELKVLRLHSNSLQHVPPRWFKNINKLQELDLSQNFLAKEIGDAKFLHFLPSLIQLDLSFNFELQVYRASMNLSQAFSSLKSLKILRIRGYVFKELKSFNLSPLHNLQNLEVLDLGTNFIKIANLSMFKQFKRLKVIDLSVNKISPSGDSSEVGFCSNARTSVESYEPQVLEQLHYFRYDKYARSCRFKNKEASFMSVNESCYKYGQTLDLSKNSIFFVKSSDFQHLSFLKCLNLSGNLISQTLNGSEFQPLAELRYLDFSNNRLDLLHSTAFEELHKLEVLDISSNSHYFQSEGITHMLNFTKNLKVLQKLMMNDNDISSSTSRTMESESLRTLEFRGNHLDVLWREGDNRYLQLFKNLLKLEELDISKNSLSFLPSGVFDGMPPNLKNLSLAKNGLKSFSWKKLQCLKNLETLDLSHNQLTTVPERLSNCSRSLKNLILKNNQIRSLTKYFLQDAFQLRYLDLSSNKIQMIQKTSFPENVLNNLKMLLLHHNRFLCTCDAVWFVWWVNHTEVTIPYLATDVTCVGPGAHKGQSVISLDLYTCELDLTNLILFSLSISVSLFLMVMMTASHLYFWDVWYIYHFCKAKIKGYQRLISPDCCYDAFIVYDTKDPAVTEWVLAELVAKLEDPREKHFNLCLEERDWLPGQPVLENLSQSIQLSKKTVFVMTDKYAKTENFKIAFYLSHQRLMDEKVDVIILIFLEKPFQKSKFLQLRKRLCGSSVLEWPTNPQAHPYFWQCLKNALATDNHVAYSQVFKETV
# How it was run: as §1
pIC50 (human TLR9),pIC50 (human TLR8),pIC50 (human TLR7),Compound
≤ 4.30,7.30,8.02,"Cc1cc(-c2[nH]c3ccc(C4CCN(C(=O)CC(C)(C)O)CC4)cc3c2C(C)C)cn(C)c1=O [Example 303, 5-(5-(1-(3-hydroxy-3-methylbutanoyl)piperidin-4-yl)-3-isopropyl-1H-indol-2-yl)-1,3-dimethylpyridin-2(1H)-one]"
5.97,7.76,8.74,"CCn1cc(-c2[nH]c3ccc(C4CCNCC4)cc3c2C(C)C)cc(Cl)c1=O [Example 32, 3-chloro-1-ethyl-5-(3-isopropyl-5-(piperidin-4-yl)-1H-indol-2-yl) pyridin-2(1H)-one]"
6.10,7.92,8.02,"Cc1cc(-c2[nH]c3ccc(C4CCN(CCC(N)=O)CC4)cc3c2C(C)C)cn(C)c1=O [Example 82, 3-(4-(2-(1,5-dimethyl-6-oxo-1,6-dihydropyridin-3-yl)-3-isopropyl-1H-indol-5-yl)piperidin-1-yl)propanamide]"
4.67,7.62,8.28,"CCNC(=O)CN1CCC(c2ccc3[nH]c(-c4cn(C)c(=O)c(Cl)c4C)c(C(C)C)c3c2)CC1 [Example 155, 2-(4-(2-(5-chloro-1,4-dimethyl-6-oxo-1,6-dihydropyridin-3-yl)-3-isopropyl-1H-indol-5-yl)piperidin-1-yl)-N-ethylacetamide]"
≤ 4.30,7.13,7.35,"Cc1cc(-c2[nH]c3ccc(C4CCN(CCN5C(=O)CCC5=O)CC4)cc3c2C(C)C)cn(C)c1=O [Example 84, 1-(2-(4-(2-(1,5-dimethyl-6-oxo-1,6-dihydropyridin-3-yl)-3-isopropyl-1H-indol-5-yl)piperidin-1-yl)ethyl)pyrrolidine-2,5-dione]"
5.72,7.39,7.50,"CC(C)c1c(-c2cc(C#N)c(=O)n(C)c2)[nH]c2ccc(C3CCNCC3)cc12 [Example 47, 5-(3-isopropyl-5-(piperidin-4-yl)-1H-indol-2-yl)-1-methyl-2-oxo-1,2-dihydropyridine-3-carbonitrile]"
6.21,7.81,7.56,"CC(C)c1c(-c2ccc(=O)n(C)c2)[nH]c2ccc(C3CCNCC3)cc12 [Example 1, 5-(3-isopropyl-5-(piperidin-4-yl)-1H-indol-2-yl)-1-methylpyridin-2(1H)-one]"
6.49,7.58,7.94,"Cc1ncccc1-c1cc(-c2[nH]c3ccc(C4CCN(C(C)C)CC4)cc3c2C(C)C)cn(C)c1=O [Example 344, 5-(3-isopropyl-5-(1-isopropylpiperidin-4-yl)-1H-indol-2-yl)-1,2′-dimethyl-[3,3′-bipyridin]-2(1H)-one]"
5.68,7.84,7.70,"CC(C)c1c(-c2cc(-c3ccccc3)c(=O)n(C)c2)[nH]c2ccc(C3CCN(CC(=O)N(C)C)CC3)cc12 [Example 170, 2-(4-(3-isopropyl-2-(1-methyl-6-oxo-5-phenyl-1,6-dihydropyridin-3-yl)-1H-indol-5-yl)piperidin-1-yl)-N,N-dimethylacetamide]"
≤ 4.30,7.35,7.80,"CC(=O)N1CC(N2CCC(c3ccc4[nH]c(-c5cn(C)c(=O)c(Cl)c5C)c(C(C)C)c4c3)CC2)C1 [Example 174, 5-(5-(1-(1-acetylazetidin-3-yl)piperidin-4-yl)-3-isopropyl-1H-indol-2-yl)-3-chloro-1,4-dimethylpyridin-2(1H)-one]"
5.86,8.11,7.39,"CCc1cc(-c2[nH]c3ccc(C4CCNCC4)cc3c2C(C)C)c(C)n(C)c1=O [Example 25, 3-ethyl-5-(3-isopropyl-5-(piperidin-4-yl)-1H-indol-2-yl)-1,6-dimethylpyridin-2(1H)-one]"
5.60,7.92,8.74,"CCCN1CCC(c2ccc3[nH]c(-c4cc(-c5cnc(C)nc5)c(=O)n(C)c4)c(C(C)C)c3c2)CC1 [Example 337, 5-(3-isopropyl-5-(1-propylpiperidin-4-yl)-1H-indol-2-yl)-1-methyl-3-(2-methylpyrimidin-5-yl)pyridin-2(1H)-one]"
5.94,7.83,7.94,"Cc1cc(-c2[nH]c3ccc(C4CCN(CC(=O)N5CC[C@H](O)C5)CC4)cc3c2C(C)C)cn(C)c1=O [Example 119, (S)-5-(5-(1-(2-(3-hydroxypyrrolidin-1-yl)-2-oxoethyl)piperidin-4-yl)-3-isopropyl-1H-indol-2-yl)-1,3-dimethylpyridin-2(1H)-one]"
6.06,7.94,7.29,"CC(C)c1c(-c2cc(N)c(=O)n(C)c2)[nH]c2ccc(C3CCNCC3)cc12 [Example 9, 3-amino-5-(3-isopropyl-5-(piperidin-4-yl)-1H-indol-2-yl)-1-methylpyridin-2(1H)-one]"
